{"source": "patent US20150224164A1", "about": "“TREATMENT OF AUTISM SPECTRUM DISORDERS USING GLYCYL-L-2-METHYLPROLYL-L-GLUMATIC ACID” (Neuren Pharmaceuticals Limited, priority 2013, published 2015)", "key": {"[1]": {"test_system": "Tbx1 heterozygous, Cntnap2 knockout, Slc9a6 knockout and fmr1 knockout mouse", "assay": "Genetic models of ASD: Tbx1, Cntnap2, Slc9a6, fmr1 mice (Example 17)", "assay_type": "in vivo", "settings": "20 mg/kg/day i.p.", "method": "Animals in each of the above models are generated in accordance with the methodology described in the cited literature. Wild type equivalents are also obtained for each genetic model. Animals in each model are divided into three groups (n=10 to n=20): placebo treated wild type mice, mutant G-2-MePE-treated group and mutant placebo-treated control group. The treatments are administered intraperitoneally: placebo (saline) or 20 mg/kg/day of G-2-MePE."}, "[2]": {"test_system": "PCNA positive cells in the subventricular zone (SVZ)", "assay": "Neuroblast proliferation, PCNA positive cells in subventricular zone", "assay_type": "in vivo, rat", "settings": "3 days", "method": "To carry out these studies, tissues were fixed and embedded in paraffin and sections obtained using standard methods. Coronal sections (6 μm) containing the level of the hippocampus were cut and mounted on chrome-alum-coated slides for staining. The sections were deparaffinized in xylene, […] in a series of ethanol and incubated in 0.1 M phosphate buffered saline (PBS). Primary antibodies against glial fibrillary acidic protein (GFAP) and proliferating cell nuclear antigen (PCNA) were used to mark reactive glial cells and cells undergoing apoptosis and proliferation, respectively. For antigen unmasking (caspase-3 and PCNA staining), sections were heated in 10 mM sodium citrate buffer (pH 6.0) for 1 min at high power. All sections were pretreated with 1% H2O2 in 50% methanol for 30 min to quench the endogenous peroxidase activity. Then either 1.5% normal horse serum or 2.5% normal sheep serum in PBS was applied for 1 h at room temperature to block nonspecific background staining. […] The number of PCNA positive cells was counted in the subventricular zone and the GFAP positive cells was scored in the cerebral cortex. […] The number of PCNA positive cells was counted in the SVZ and the number of cells was then averaged as cells/mm depending on the length of ventricle wall used for counting (FIG. 19A). […]"}, "[3]": {"test_system": "layer 5 cortical neurons of MeCP2-/y mice", "assay": "Whole-cell recordings of spontaneous EPSCs in acute brain slices (Example 10)", "assay_type": "in vivo, mouse", "settings": "20 mg/kg i.p. daily P15 to P28-P32; vs vehicle", "method": "For the survival measurements, the nocturnal activity analysis and the immunoblot analysis, G-2-MePE (synthesised Albany Molecular Research Inc. (Albany, N.Y.) and supplied by Neuren Pharmaceuticals Limited) is administered daily via intra-peritoneal injections (20 mg/kg, vehicle=saline, 0.01% BSA). The treatment starts at P15 and is maintained throughout the course of the experiments. For intracellular physiology experiments, the mice are injected daily with G-2-MePE (20 mg/kg body weight, vehicle=saline, 0.01% BSA) for 2 weeks, from P15 to P28-P32 when they are used for acute slice preparation. For optical imaging experiments, mice are injected with G-2-MePE (20 mg/kg body weight, vehicle=saline, 0.01% BSA) daily from the day of the lid suture to the day of imaging. […]\nBorosilicate pipettes (3-5 MΩ, WPI) are pulled using a Sutter P-80 puller (Sutter Instruments). Cells are visualized with an Achroplan 40× water-immersion lens with infrared-DIC optics (Zeiss) and detected with an infrared camera (Hamamatsu) projecting to a video monitor. […] Then in current clamp ˜10 pulses (500 ms, 40-140 pA at 10 pA increments), are applied to quantify evoked firing rates and cellular excitability. […] Analysis is performed using a custom software package written in Matlab, with all events detected according to automated thresholds and blindly verified for each event individually by the experimenter."}}, "note": "Where a SMILES comes first, the peptide text is derived from it."}
{"smiles": "C[C@@]1(C(=O)N[C@@H](CCC(=O)O)C(=O)O)CCCN1C(=O)CN", "note": "[Example G-2-MePE, Glycyl-L-2-methylprolyl-L-glutamic acid] (HELM PEPTIDE1{G.[C[C@@]1(C(=O)[*:2])CCCN1[*:1]].E}$$$$V2.0)", "values": [{"measurement": "measures associated with the ASD phenotype", "setting": "[1]", "value": "significantly improves all measures"}, {"measurement": "number of PCNA positive cells in SVZ", "setting": "[2]; 9 month old rats, 1.2 mg/kg i.p., p<0.005", "value": "significant increase"}, {"measurement": "number of PCNA positive cells in SVZ", "setting": "[2]; 18 month old rats, single i.p. 12 mg/kg, vs vehicle p<0.05", "value": "significant increase"}, {"measurement": "spontaneous EPSC amplitude", "setting": "[3]", "value": "significantly larger in amplitude"}]}
